Measurements from patent US20190241569A1, “3-(ARYL OR HETEROARYL) METHYLENEINDOLIN-2-ONE DERIVATIVES AS INHIBITORS OF CANCER STEM CELL PATHWAY KINASES FOR THE TREATMENT OF CANCER” (Boston Biomedical, Inc., priority 2013, published 2019).
Like-named read-outs stand apart in the source and are kept apart here.

What was measured:
A549 = experiment: Bulk cancer cells, Cell Titer-Glo 72 hours (Test Example 2); type: cell-based; conditions: Homo sapiens
Experimental: (§1) Tubes of 3× drug (60 uM in 500 uL complete media) were prepared from 5 mM stock solutions in DMSO. […] To treat cells, 50 uL of drug from the dilution plate was removed and added to the cell plates. […] Cells were harvested 72 hours after drug addition using Cell Titer-Glo (Promega) and luminescence measured on a plate reader.

ACHN = experiment: as above; type: cell-based; conditions: Homo sapiens, ACHN, 72 h
Experimental: as §1

FaDu = experiment: as above; type: cell-based; conditions: Homo sapiens
Experimental: as §1

p-AMPK Thr172 = experiment: Kinase inhibition, Western blot in HeLa cells (Test Example 5); type: cell-based; conditions: Homo sapiens, 6 hours, DMSO = 100, read-out: p-AMPK Relative Intensity (%)
Experimental: (§2) HeLa cells were treated with 5 uM of the indicated compound for 6 hours. Following compound incubation, cells were washed twice with ice-cold PBS and lysed in lysis buffer (50 mM HEPES, pH 7.5, 1% Nonidet P40, 150 mM NaCl, 1 mM EDTA, 1× protease inhibitor cocktail (Promega)). 30 micrograms of soluble protein was separated by SDS-PAGE and transferred to PVDF membranes. Primary antibodies against p-AMPK Thr172, p-RPS6 Ser235/236, p-RPS6 Ser240/244, and Tubulin (Cell Signaling Technology) were used. The antigen-antibody complexes were visualized by enhanced chemiluminescence (BioRad). The results are shown below in Tables 17A-17E.

p-RPS6 Ser235/236 = experiment: as above; type: cell-based; conditions: Homo sapiens, 6 hours, DMSO = 100, read-out: p-RPS6 Ser235/236 Relative Intensity (%)
Experimental: as §2

p-RPS6 Ser240/244 = experiment: as above; type: cell-based; conditions: Homo sapiens, 6 hours, DMSO = 100, read-out: p-RPS6 Ser240/244 Relative Intensity (%)
Experimental: as §2

FaDu CSC = experiment: Cancer stem cells, Cell Titer-Glo 72 hours (Test Example 3); type: cell-based; conditions: Homo sapiens, FaDu, 72 h
A549 CSC = experiment: as above; type: cell-based; conditions: Homo sapiens
human RIOK2 protein = biological target: T1, human RIOK2 protein (Homo sapiens, UniProt Q9BVS4); experiment: RIOK2 autophosphorylation ELISA (Test Example 4); type: biochemical; conditions: for inhibition at 1 µM: read-out: Inhibitory activity at 1 μM (%); for inhibition at 10 µM: read-out: Inhibitory activity at 10 μM (%)
T1 construct: glutathione S-transferase is fused to N-terminal of a full-length human RIOK2 protein; GST (glutathione S-transferase) (N); purchased CarnaBio, Inc; host or cells: baculovirus-Sf21 cell expression system
T1 sequence (Q9BVS4 whole entry, the tested form may be a part): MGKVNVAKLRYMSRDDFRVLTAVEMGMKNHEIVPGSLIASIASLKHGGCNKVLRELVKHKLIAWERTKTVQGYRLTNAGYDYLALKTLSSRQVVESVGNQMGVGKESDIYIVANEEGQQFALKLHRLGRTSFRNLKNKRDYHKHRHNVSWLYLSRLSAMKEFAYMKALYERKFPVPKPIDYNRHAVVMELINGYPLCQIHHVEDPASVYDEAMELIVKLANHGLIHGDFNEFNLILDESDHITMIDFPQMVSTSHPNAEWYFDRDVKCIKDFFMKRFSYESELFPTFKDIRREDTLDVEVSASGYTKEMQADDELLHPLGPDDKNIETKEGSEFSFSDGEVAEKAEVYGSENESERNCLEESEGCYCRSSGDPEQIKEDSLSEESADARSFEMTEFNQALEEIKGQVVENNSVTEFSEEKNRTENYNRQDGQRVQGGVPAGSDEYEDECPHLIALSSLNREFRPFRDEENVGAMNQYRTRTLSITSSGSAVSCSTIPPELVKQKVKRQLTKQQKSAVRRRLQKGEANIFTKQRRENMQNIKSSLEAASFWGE
Experimental: A protein in which glutathione S-transferase is fused to N-terminal of a full-length human RIOK2 protein was used as a recombinant human RIOK2 protein. The protein was prepared using a baculovirus-Sf21 cell expression system from CarnaBio, Inc. A kinase reaction solution was prepared by mixing 25 μg/mL of the recombinant human RIOK2 protein and 100 μM of ATP in 20 μl of kinase reaction buffer (50 mM Tris-HCl, 10 mM MgCl2, 10 mM MnCl2, 1 mM DTT, 0.01% Brij, 1× PhosSTOP (manufactured by Roche Applied Science)), and was incubated at a temperature of 30° C. for 1 hour. After adding 30 μl of 40 mM EDTA solution to this kinase reaction solution, the kinase reaction solution was transferred to a MaxiSorp 96 well plate (manufactured by Nunc). Thereafter, phosphorylated human RIOK2 protein was allowed to adsorb onto the wells by leaving the plate in a refrigerator overnight.
The following day, the supernatant was removed, and the wells were washed three times with ELISA buffer (20 mM Tris-HCl, 150 mM NaCl, 0.2% Tween-20, 0.1% BSA). Thereafter, 100 μl of Blocking-One P (product name; manufactured by Nacalai Tesque, Inc.) was applied to the wells, and a blocking treatment was performed for 1 hour at room temperature. […] After further washing the wells, a secondary antibody, anti-rabbit IgG conjugated with horseradish peroxidase (manufactured by Jackson ImmunoResearch; 1/4000 ELISA buffer-diluted solution), was applied to the wells, and incubation was performed for 30 minutes at room temperature. After washing the wells once again, 50 μl of tetramethyl benzidine (TMB) aqueous solution (manufactured by Nacalai Tesque, Inc.) was applied to the wells, and a coloring reaction was performed for 30 minutes at room temperature. Thereafter, the coloring reaction was stopped by adding 50 μl of 2M H2SO4 to the wells. An absorptiometric level of 450 nm was measured in each well using ARVO SX (manufactured by Wallac).

ACHN CSC = experiment: Cancer stem cells, Cell Titer-Glo 72 hours (Test Example 3); type: cell-based; conditions: Homo sapiens, ACHN, 72 h

| IC50 (A549) [µM] | IC50 (ACHN) [µM] | IC50 (FaDu) [µM] | IC50 (FaDu CSC) [µM] | IC50 (A549 CSC) [µM] | inhibition at 1 µM (human RIOK2 protein) [%] | inhibition at 10 µM (human RIOK2 protein) [%] | IC50 (ACHN CSC) [µM] | Structure (SMILES) | activity at 5 µM (p-AMPK Thr172; 5 uM compound, Western blot) [%] | activity at 5 µM (p-RPS6 Ser235/236; 5 uM compound, Western blot) [%] | activity at 5 µM (p-RPS6 Ser240/244; 5 uM compound, Western blot) [%] | activity at 5 µM (p-AMPK Thr172; 5 uM) [%] | activity at 5 µM (p-RPS6 Ser235/236; 5 uM) [%] | activity at 5 µM (p-RPS6 Ser240/244; 5 uM) [%] |
| --- | --- | --- | --- | --- | --- | --- | --- | --- | --- | --- | --- | --- | --- | --- |
| 19.7 | 21 | 25.8 | – | – | – | – | – | Cc1cc(C)c(/C=C2\C(=O)Nc3c2cccc3-c2cncc3ccccc23)[nH]1 [Example 279] | 108 | 86 | 83 | – | – | – |
| – | – | 22.6 | – | – | – | – | – | COc1ncccc1-c1cccc2c1/C(=C/c1[nH]c(C)cc1C)C(=O)N2 [Example 271] | 105 | 67 | 67 | – | – | – |
| 16.3 | 16.8 | 39.7 | – | – | – | – | – | Cc1cc(C)c(/C=C2\C(=O)Nc3cccc(-c4cncnc4)c32)[nH]1 [Example 278] | 198 | 44 | 43 | – | – | – |
| 16 | 10.4 | 4.22 | 2.57 | – | 32 | 68 | – | CCN(CC)CCNC(=O)c1c(C)[nH]c(/C=C2\C(=O)Nc3ccc(-c4cnn(C5CCOCC5)c4)cc32)c1C [Example 47] | – | – | – | – | – | – |
| 23.5 | – | – | – | – | – | – | – | Cc1cc(C)c(/C=C2\C(=O)Nc3c2cccc3-c2ccncc2)[nH]1 [Example 281] | 83 | 68 | 65 | – | – | – |
| 21.1 | 28.1 | 35.3 | – | – | – | – | – | COc1ncc(-c2cccc3c2/C(=C/c2[nH]c(C)cc2C)C(=O)N3)cn1 [Example 277] | 145 | 77 | 75 | – | – | – |

The next lines start with the compound.

| Structure (SMILES) | IC50 (A549) [µM] | IC50 (ACHN) [µM] | IC50 (FaDu) [µM] | IC50 (FaDu CSC) [µM] | IC50 (A549 CSC) [µM] | inhibition at 1 µM (human RIOK2 protein) [%] | inhibition at 10 µM (human RIOK2 protein) [%] | IC50 (ACHN CSC) [µM] | activity at 5 µM (p-AMPK Thr172; 5 uM compound, Western blot) [%] | activity at 5 µM (p-RPS6 Ser235/236; 5 uM compound, Western blot) [%] | activity at 5 µM (p-RPS6 Ser240/244; 5 uM compound, Western blot) [%] | activity at 5 µM (p-AMPK Thr172; 5 uM) [%] | activity at 5 µM (p-RPS6 Ser235/236; 5 uM) [%] | activity at 5 µM (p-RPS6 Ser240/244; 5 uM) [%] |
| --- | --- | --- | --- | --- | --- | --- | --- | --- | --- | --- | --- | --- | --- | --- |
| CCN(CC)CCNC(=O)c1c(C)[nH]c(/C=C2\C(=O)Nc3ccc(-c4ncc(-c5ccccc5)o4)cc32)c1C [Example 19] | – | – | 7.35 | 27.6 | 0.35 | 32 | 56 | – | – | – | – | – | – | – |
| CCN(CC)CCNC(=O)c1c(C)[nH]c(/C=C2\C(=O)Nc3ccc(-c4ccc(-c5cccs5)s4)cc32)c1C [Example 27] | – | – | 2.51 | 0.83 | – | – | – | – | – | – | – | 21 | 5 | 41 |
| Cc1[nH]c(/C=C2\C(=O)Nc3cc(-c4ccc(-c5ccccc5)s4)ccc32)c(C)c1C(=O)N1CCN(C)CC1 [Example 29] | – | – | – | – | – | – | – | – | – | – | – | 108 | 36 | 68 |
| CCN(CC)CCNC(=O)c1c(C)[nH]c(/C=C2\C(=O)Nc3ccc(-c4ccnn4-c4ccccc4)cc32)c1C [Example 22] | 2.94 | 6.57 | 3.01 | 3.46 | 5.54 | 55 | 100 | 1.17 | – | – | – | – | – | – |
| Cc1[nH]c(/C=C2\C(=O)Nc3ccc(-c4nnc(-c5ccccc5)s4)cc32)c(C)c1C(=O)N1CCN(C)CC1 [Example 2] | 48.9 | – | 14.1 | 0.23 | – | – | 19 | – | – | – | – | – | – | – |
| CCN(CC)CCNC(=O)c1c(C)[nH]c(/C=C2\C(=O)Nc3cc(-c4ccc(-c5ccccc5)s4)ccc32)c1C [Example 15] | – | – | – | 30.5 | – | – | – | – | – | – | – | 150 | 5 | 56 |
| Cc1[nH]c(/C=C2\C(=O)Nc3cc(-c4csc(-c5ccccc5)n4)ccc32)c(C)c1C(=O)N1CCOCC1 [Example 36] | – | – | – | 41.9 | – | – | – | – | – | – | – | 118 | 4 | 44 |
| CCN(CC)CCNC(=O)c1c(C)[nH]c(/C=C2\C(=O)Nc3ccc(-c4cnn(-c5ccccn5)c4)cc32)c1C [Example 32] | 1.72 | 1.24 | 0.51 | 0.05 | 2.53 | 36 | 86 | 0.13 | – | – | – | – | – | – |
| CCN(CC)CCNC(=O)c1c(C)[nH]c(/C=C2\C(=O)Nc3ccc(-c4cnn(-c5ccccc5)c4)cc32)c1C [Example 4] | 5.35 | 2.28 | 6.25 | 0.6 | 4.83 | 45 | 94 | – | – | – | – | – | – | – |
